Experimental data taken from PubChem BioAssay (NCI).
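The compound was tested at five concentrations on cells cultured in 96-well plates, with a 48-hour exposure period. GI50 marks 50% less growth. TGI is the concentration that stops growth completely.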

Tests used:
Experiment in all cases: inhibition of tumour cell growth, NCI panel, 48 h
MDA-N = test system: MDA-N
786-0 renal = test system: 786-0 renal
A498 renal = test system: A498 renal
A549 NSCLC = test system: A549 NSCLC
ACHN renal = test system: ACHN renal
BT-549 breast = test system: BT-549 breast
CAKI-1 renal = test system: CAKI-1 renal
CCRF-CEM leukemia = test system: CCRF-CEM leukemia
COLO 205 colon = test system: COLO 205 colon
DU-145 prostate = test system: DU-145 prostate
EKVX NSCLC = test system: EKVX NSCLC
HCC-2998 colon = test system: HCC-2998 colon
HCT-116 colon = test system: HCT-116 colon
HCT-15 colon = test system: HCT-15 colon
HL-60(TB) leukemia = test system: HL-60(TB) leukemia
HOP-92 NSCLC = test system: HOP-92 NSCLC
IGROV1 ovarian = test system: IGROV1 ovarian
K-562 leukemia = test system: K-562 leukemia
KM12 colon = test system: KM12 colon
LOX IMVI melanoma = test system: LOX IMVI melanoma
M14 melanoma = test system: M14 melanoma
MALME-3M melanoma = test system: MALME-3M melanoma
MCF7 breast = test system: MCF7 breast
MDA-MB-231 breast = test system: MDA-MB-231 breast
MDA-MB-435 = test system: MDA-MB-435
MOLT-4 leukemia = test system: MOLT-4 leukemia
NCI-H226 lung = test system: NCI-H226 lung
NCI-H23 lung = test system: NCI-H23 lung
NCI-H460 lung = test system: NCI-H460 lung
NCI-H522 lung = test system: NCI-H522 lung
NCI/ADR-RES ovarian = test system: NCI/ADR-RES ovarian
OVCAR-4 ovarian = test system: OVCAR-4 ovarian
OVCAR-5 ovarian = test system: OVCAR-5 ovarian
OVCAR-8 ovarian = test system: OVCAR-8 ovarian
RPMI-8226 leukemia = test system: RPMI-8226 leukemia
RXF 393 renal = test system: RXF 393 renal
SF-295 CNS = test system: SF-295 CNS
SF-539 CNS = test system: SF-539 CNS
SK-MEL-28 melanoma = test system: SK-MEL-28 melanoma
SK-MEL-5 melanoma = test system: SK-MEL-5 melanoma
SK-OV-3 ovarian = test system: SK-OV-3 ovarian
SN12C renal = test system: SN12C renal
SNB-19 CNS = test system: SNB-19 CNS
SNB-75 CNS = test system: SNB-75 CNS
SR leukemia = test system: SR leukemia
SW-620 colon = test system: SW-620 colon
TK-10 renal = test system: TK-10 renal
U251 CNS = test system: U251 CNS
UACC-257 melanoma = test system: UACC-257 melanoma
UACC-62 melanoma = test system: UACC-62 melanoma
UO-31 renal = test system: UO-31 renal
HOP-62 NSCLC = test system: HOP-62 NSCLC
HS 578T breast = test system: HS 578T breast
HT29 colon = test system: HT29 colon
OVCAR-3 ovarian = test system: OVCAR-3 ovarian
PC-3 prostate = test system: PC-3 prostate
SF-268 CNS = test system: SF-268 CNS
SK-MEL-2 melanoma = test system: SK-MEL-2 melanoma
T-47D breast = test system: T-47D breast

Structure (SMILES): N=C1C=C/[N+](=C\C=CCO)C([O-])=N1
- GI50 (MDA-N): > 1000 µM
- TGI (MDA-N): > 1000 µM

Structure (SMILES): Cc1ccc(S(=O)(=O)Nn2c(S)c(C#N)c(-c3ccc(N(C)C)cc3)c(C#N)c2=O)cc1
- TGI (786-0 renal): > 100 µM
- TGI (A498 renal): 80.6 µM
- TGI (A549 NSCLC): > 100 µM
- TGI (ACHN renal): > 100 µM
- TGI (BT-549 breast): 67.3 µM
- TGI (CAKI-1 renal): > 100 µM
- TGI (CCRF-CEM leukemia): > 100 µM
- TGI (COLO 205 colon): 67.8 µM
- TGI (DU-145 prostate): > 100 µM
- TGI (EKVX NSCLC): > 100 µM
- TGI (HCC-2998 colon): > 100 µM
- TGI (HCT-116 colon): 90.5 µM
- TGI (HCT-15 colon): 56.5 µM
- TGI (HL-60(TB) leukemia): 79.6 µM
- TGI (HOP-92 NSCLC): > 100 µM
- TGI (IGROV1 ovarian): 38.5 µM
- TGI (K-562 leukemia): > 100 µM
- TGI (KM12 colon): 52.2 µM
- TGI (LOX IMVI melanoma): > 100 µM
- TGI (M14 melanoma): > 100 µM
- TGI (MALME-3M melanoma): 80.6 µM
- TGI (MCF7 breast): > 100 µM
- TGI (MDA-MB-231 breast): > 100 µM
- TGI (MDA-MB-435): 60 µM
- TGI (MDA-N): > 100 µM
- TGI (MOLT-4 leukemia): > 100 µM
- TGI (NCI-H226 lung): 34.6 µM
- TGI (NCI-H23 lung): 61.1 µM
- TGI (NCI-H460 lung): 39.3 µM
- TGI (NCI-H522 lung): 37.8 µM
- TGI (NCI/ADR-RES ovarian): 97.2 µM
- TGI (OVCAR-4 ovarian): 43.1 µM
- TGI (OVCAR-5 ovarian): > 100 µM
- TGI (OVCAR-8 ovarian): 44.9 µM
- TGI (RPMI-8226 leukemia): 91.5 µM
- TGI (RXF 393 renal): 88.3 µM
- TGI (SF-295 CNS): > 100 µM
- TGI (SF-539 CNS): 40.7 µM
- TGI (SK-MEL-28 melanoma): 77.4 µM
- TGI (SK-MEL-5 melanoma): 45.3 µM
- TGI (SK-OV-3 ovarian): > 100 µM
- TGI (SN12C renal): 68.2 µM
- TGI (SNB-19 CNS): > 100 µM
- TGI (SNB-75 CNS): > 100 µM
- TGI (SR leukemia): > 100 µM
- TGI (SW-620 colon): 37.7 µM
- TGI (TK-10 renal): 76.2 µM
- TGI (U251 CNS): 55.6 µM
- TGI (UACC-257 melanoma): > 100 µM
- TGI (UACC-62 melanoma): > 100 µM
- TGI (UO-31 renal): 44.8 µM

Structure (SMILES): COc1cc(C2CC(c3cccc(Nc4ccnc5cc(Cl)ccc45)c3)=NN2C=O)cc(OC)c1OC (configuration not stated)
- GI50 (786-0 renal): 1.12 µM
- TGI (786-0 renal): 5.16 µM
- GI50 (A498 renal): 0.273 µM
- TGI (A498 renal): 1.63 µM
- GI50 (A549 NSCLC): 0.571 µM
- TGI (A549 NSCLC): 10 µM
- GI50 (ACHN renal): 1.27 µM
- TGI (ACHN renal): 5.32 µM
- GI50 (BT-549 breast): 0.419 µM
- TGI (BT-549 breast): 1.7 µM
- GI50 (CAKI-1 renal): 0.563 µM
- TGI (CAKI-1 renal): 2.47 µM
- GI50 (CCRF-CEM leukemia): 0.462 µM
- GI50 (COLO 205 colon): 0.635 µM
- TGI (COLO 205 colon): 7.15 µM
- GI50 (DU-145 prostate): 1.97 µM
- TGI (DU-145 prostate): 11.8 µM
- GI50 (EKVX NSCLC): 1.3 µM
- TGI (EKVX NSCLC): 26.1 µM
- GI50 (HCC-2998 colon): 2.31 µM
- TGI (HCC-2998 colon): 24.4 µM
- GI50 (HCT-116 colon): 0.381 µM
- TGI (HCT-116 colon): 1.64 µM
- GI50 (HCT-15 colon): 0.626 µM
- TGI (HCT-15 colon): > 100 µM
- GI50 (HL-60(TB) leukemia): 0.243 µM
- TGI (HL-60(TB) leukemia): 0.53 µM
- GI50 (HOP-62 NSCLC): 0.846 µM
- TGI (HOP-62 NSCLC): 8.31 µM
- GI50 (HOP-92 NSCLC): 2.75 µM
- TGI (HOP-92 NSCLC): 85.4 µM
- GI50 (HS 578T breast): 0.545 µM
- TGI (HS 578T breast): 9.36 µM
- GI50 (HT29 colon): 0.364 µM
- TGI (HT29 colon): 1.23 µM
- GI50 (IGROV1 ovarian): 2.12 µM
- TGI (IGROV1 ovarian): > 43.2 µM
- GI50 (K-562 leukemia): 0.435 µM
- TGI (K-562 leukemia): 12.6 µM
- GI50 (KM12 colon): 0.502 µM
- TGI (KM12 colon): > 23.4 µM
- GI50 (LOX IMVI melanoma): 0.791 µM
- TGI (LOX IMVI melanoma): 7.15 µM
- GI50 (M14 melanoma): 0.319 µM
- TGI (M14 melanoma): 2 µM
- GI50 (MALME-3M melanoma): 0.825 µM
- TGI (MALME-3M melanoma): 5.14 µM
- GI50 (MCF7 breast): 0.354 µM
- TGI (MCF7 breast): 10.2 µM
- GI50 (MDA-MB-231 breast): 1.36 µM
- TGI (MDA-MB-231 breast): 13.7 µM
- GI50 (MDA-MB-435): 0.157 µM
- TGI (MDA-MB-435): 0.466 µM
- GI50 (MOLT-4 leukemia): 0.595 µM
- TGI (MOLT-4 leukemia): 4.44 µM
- GI50 (NCI-H226 lung): 1.98 µM
- TGI (NCI-H226 lung): 6.15 µM
- GI50 (NCI-H23 lung): 1.4 µM
- TGI (NCI-H23 lung): 21.5 µM
- GI50 (NCI-H460 lung): 0.436 µM
- TGI (NCI-H460 lung): > 40.4 µM
- GI50 (NCI-H522 lung): 0.502 µM
- TGI (NCI-H522 lung): 6.68 µM
- GI50 (NCI/ADR-RES ovarian): 1.3 µM
- TGI (NCI/ADR-RES ovarian): 6.3 µM
- GI50 (OVCAR-3 ovarian): 0.408 µM
- TGI (OVCAR-3 ovarian): 1.35 µM
- GI50 (OVCAR-4 ovarian): 1.13 µM
- TGI (OVCAR-4 ovarian): 6.21 µM
- GI50 (OVCAR-5 ovarian): 3.5 µM
- TGI (OVCAR-5 ovarian): 20.3 µM
- GI50 (OVCAR-8 ovarian): 1.64 µM
- TGI (OVCAR-8 ovarian): > 28.3 µM
- GI50 (PC-3 prostate): 0.979 µM
- TGI (PC-3 prostate): 19.2 µM
- GI50 (RPMI-8226 leukemia): 3.72 µM
- TGI (RPMI-8226 leukemia): > 23 µM
- GI50 (RXF 393 renal): 1.38 µM
- TGI (RXF 393 renal): 5.29 µM
- GI50 (SF-268 CNS): 1.49 µM
- TGI (SF-268 CNS): > 34.8 µM
- GI50 (SF-295 CNS): 0.357 µM
- TGI (SF-295 CNS): 3.61 µM
- GI50 (SF-539 CNS): 1.02 µM
- TGI (SF-539 CNS): 3.89 µM
- GI50 (SK-MEL-2 melanoma): 0.504 µM
- TGI (SK-MEL-2 melanoma): 3.08 µM
- GI50 (SK-MEL-28 melanoma): 0.961 µM
- TGI (SK-MEL-28 melanoma): 4.26 µM
- GI50 (SK-MEL-5 melanoma): 0.454 µM
- TGI (SK-MEL-5 melanoma): 2.34 µM
- GI50 (SK-OV-3 ovarian): 1.35 µM
- TGI (SK-OV-3 ovarian): 4.14 µM
- GI50 (SN12C renal): 1.14 µM
- TGI (SN12C renal): 27.2 µM
- GI50 (SNB-19 CNS): 2.52 µM
- TGI (SNB-19 CNS): > 100 µM
- GI50 (SNB-75 CNS): 0.31 µM
- TGI (SNB-75 CNS): 2.3 µM
- GI50 (SR leukemia): 0.318 µM
- TGI (SR leukemia): 1.7 µM
- GI50 (SW-620 colon): 0.401 µM
- GI50 (T-47D breast): 0.805 µM
- TGI (T-47D breast): 5.17 µM
- GI50 (TK-10 renal): 1.12 µM
- TGI (TK-10 renal): 4.45 µM
- GI50 (U251 CNS): 0.393 µM
- TGI (U251 CNS): 3.46 µM
- GI50 (UACC-257 melanoma): 0.743 µM
- TGI (UACC-257 melanoma): 5.6 µM
- GI50 (UACC-62 melanoma): 0.621 µM
- TGI (UACC-62 melanoma): 2.66 µM
- GI50 (UO-31 renal): 1.32 µM
- TGI (UO-31 renal): 4.69 µM
